Test results published in paper PMC9732821, “Neurotrophic Activity and Its Modulation by Zinc Ion of a Dimeric Peptide Mimicking the Brain-Derived Neurotrophic Factor N-Terminal Region” (ACS Chemical Neuroscience, 2022).

Experiment: potentiometric titration, Zn^2+ complex stability constants
Assay type: binding
Conditions: 298 K, 0.1 M KNO3, metal/ligand 0.9:1 to 2.2:1
Description: Potentiometric measurements were carried out to give insight into the coordination environment of Zn^2+ bound to the d-bdnf peptide (Figure S5). […] The four protonation equilibria of the aspartic and glutamic residues partly overlap but, in agreement with the literature data, the aspartic β-carboxylic group is more acidic than glutamic γ-carboxylic one.[48] The potentiometric titrations were carried out exploring 0.9:1 and 2.2:1 metal to ligand molar ratio. […] The peptide forms two complex species, [ZnLH] and [ZnL]. The first one is the predominant at pH = 6, and the calculated stability constant value [logK(111) = logβ(111) – logK(011) = 5.71] indicates the involvement of three nitrogen atoms in the metal coordination environment. The [ZnL] species display a stability constant value, logβ = 7.15, higher than that of protonated species indicative of the involvement of a further nitrogen atom in the metal binding mode. In this complex species, Zn^2+ is bound to four nitrogen atoms with the involvement of two amino and two imidazole (2NH2,2NIm coordination mode). […]
Potentiometric measurements
Potentiometric titrations were carried out on a Titrando 905 automatic, using a combined glass-Ag/AgCl electrode (Metrohm, Switzerland). […] To avoid systematic errors and verify reproducibility, the EMF values of each experiment were recorded at different time intervals. The data were analyzed by […]

log (Zn2+ complex stability constant) (species ZnLH 110, [ZnL] (2 His, 2 NH2)): 7.15 (3) | log (Zn2+ complex stability constant) (species ZnLH 111 (2 His, NH2)): 13.30 (2)
Substance: HSDPARRGELSVC-C-VSLEGRRAPDSH (disulfide) [d-bdnf]
